# The source made the active and inactive calls. No cut-off for these calls is given here.
# Assays:
# [1] = target: T1, Nuclear factor erythroid 2-related factor 2 (Homo sapiens) (UniProt Q16236); assay: Activation of Nrf2 in human HepG2-ARE-C8 cells assessed as upregulation of ARE level after 12 hrs by luciferase reporter gene assay; assay type: cell-based
# T1 sequence (whole entry): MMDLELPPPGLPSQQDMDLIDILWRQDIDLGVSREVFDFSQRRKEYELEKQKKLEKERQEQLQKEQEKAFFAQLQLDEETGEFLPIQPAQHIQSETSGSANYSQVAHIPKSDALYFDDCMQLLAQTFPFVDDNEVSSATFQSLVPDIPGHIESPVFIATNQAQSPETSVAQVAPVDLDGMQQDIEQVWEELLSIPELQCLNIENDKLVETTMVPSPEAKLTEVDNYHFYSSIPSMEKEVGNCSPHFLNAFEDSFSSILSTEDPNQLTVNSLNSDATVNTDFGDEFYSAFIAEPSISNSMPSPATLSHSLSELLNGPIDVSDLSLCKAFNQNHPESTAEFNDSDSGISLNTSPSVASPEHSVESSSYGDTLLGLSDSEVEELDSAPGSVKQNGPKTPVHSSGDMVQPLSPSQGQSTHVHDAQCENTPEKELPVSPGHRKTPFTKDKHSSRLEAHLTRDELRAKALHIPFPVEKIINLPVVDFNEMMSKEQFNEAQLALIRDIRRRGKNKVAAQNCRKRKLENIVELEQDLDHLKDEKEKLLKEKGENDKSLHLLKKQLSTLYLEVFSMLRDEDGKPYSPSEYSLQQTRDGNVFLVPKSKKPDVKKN
# [2] = target: T1, Nuclear factor erythroid 2-related factor 2 (Homo sapiens); assay: Activation of Nrf2 in human HCT116 cells at 20 uM after 8 hrs by qRT-PCR analysis in presence of siRNA relative to siRNA nontreated control; assay type: cell-based; conditions: HCT-116
# Mus musculus [3] = assay: Antiinflammatory activity in ip dosed C57BL/6 mouse assessed as reduction of LPS-induced IL-12 level in serum pretreated for 48 hrs followed by LPS challenge measured after 5 hrs by ELISA relative to LPS-treated control; assay type: functional, organism-based
# Mus musculus [4] = assay: Antiinflammatory activity in C57BL/6 mouse assessed as prevention of LPS-induced morphological changes in lung at 10 to 80 mg/kg/day, ip pretreated for 48 hrs followed by LPS challenge measured after 5 hrs; assay type: functional, organism-based
# [5] = target: T1, Nuclear factor erythroid 2-related factor 2 (Homo sapiens); assay: Activation of Nrf2 in human HCT116 cells assessed as upregulation of GCLM gene expression measured at 4 hrs by qRT-PCR analysis; assay type: cell-based; conditions: HCT-116
# [6] = target: T1, Nuclear factor erythroid 2-related factor 2 (Homo sapiens); assay: Activation of Nrf2 in human HCT116 cells assessed as upregulation of HO-1 gene expression at 20 uM after 8 hrs by qRT-PCR analysis in presence of siRNA relative to siRNA nontreated control; assay type: cell-based; conditions: HCT-116
# Mus musculus [7] = assay: Antiinflammatory activity in ip dosed C57BL/6 mouse assessed as reduction of LPS-induced TNF-alpha level in serum pretreated for 48 hrs followed by LPS challenge measured after 5 hrs by ELISA relative to LPS-treated control; assay type: functional, organism-based
# [8] = target: T1, Nuclear factor erythroid 2-related factor 2 (Homo sapiens); assay: Activation of Nrf2 in human HCT116 cells assessed as upregulation of HO-1 gene expression measured at 4 hrs by qRT-PCR analysis; assay type: cell-based; conditions: HCT-116
# [9] = target: T1, Nuclear factor erythroid 2-related factor 2 (Homo sapiens); assay: Activation of Nrf2 in human HCT116 cells assessed as upregulation of NQO1 gene expression at 20 uM after 8 hrs by qRT-PCR analysis in presence of siRNA relative to siRNA nontreated control; assay type: cell-based; conditions: HCT-116
# [10] = target: T1, Nuclear factor erythroid 2-related factor 2 (Homo sapiens); assay: Induction of phosphorylated Nrf2 at S40 translocation from cytoplasm to nucleus in human HCT116 cells at 20 uM after 4 hrs by Western blot analysis; assay type: cell-based; conditions: HCT-116
# [11] = target: T1, Nuclear factor erythroid 2-related factor 2 (Homo sapiens); assay: Activation of Nrf2 in human HCT116 cells assessed as upregulation of GCS expression at 10 uM after 1 hr by Western blot analysis; assay type: cell-based; conditions: HCT-116
# Mus musculus [12] = assay: Antiinflammatory activity in ip dosed C57BL/6 mouse assessed as reduction of LPS-induced IL-6 level in serum pretreated for 48 hrs followed by LPS challenge measured after 5 hrs by ELISA relative to LPS-treated control; assay type: functional, organism-based
# [13] = target: T1, Nuclear factor erythroid 2-related factor 2 (Homo sapiens); assay: Activation of Nrf2 in human HCT116 cells assessed as upregulation of GCLM gene expression at 20 uM after 8 hrs by qRT-PCR analysis in presence of siRNA relative to siRNA nontreated control; assay type: cell-based; conditions: HCT-116
# [14] = target: T1, Nuclear factor erythroid 2-related factor 2 (Homo sapiens); assay: Induction of Nrf2 translocation from cytoplasm to nucleus in human HCT116 cells after 12 hrs by DyLight 488 and DAPI staining-based laser scanning confocal microscopic analysis; assay type: cell-based; conditions: HCT-116
# [15] = Intrinsic aqueous solubility of the compound by potentiometric titration method; assay type: physicochemical; conditions: read-out: Intrinsic_solubility
# [16] = Dissociation constant, pKa of the compound by potentiometric titration method; assay type: physicochemical
# [17] = Lipophilicity, log D of the compound at pH 7.4 by potentiometric titration method; assay type: physicochemical; conditions: buffer
# Mus musculus [18] = assay: In vivo activation of Nrf2 in LPS-stimulated ip dosed C57BL/6 mouse lung pretreated for 48 hrs followed by LPS challenge measured after 5 hrs by Western blot analysis; assay type: functional, organism-based
# Mus musculus [19] = assay: Antiinflammatory activity in ip dosed C57BL/6 mouse assessed as reduction of LPS-induced IFN-gamma level in serum pretreated for 48 hrs followed by LPS challenge measured after 5 hrs by ELISA relative to LPS-treated control; assay type: functional, organism-based
# Mus musculus [20] = assay: Toxicity in C57BL/6 mouse assessed as effect on body weight at 10 to 80 mg/kg/day, ip measured after 3 days; assay type: organism-based; conditions: in vivo, 72 h
# Mus musculus [21] = assay: Antiinflammatory activity in ip dosed C57BL/6 mouse assessed as inhibition of LPS-induced IL-6 expression in lung pretreated for 48 hrs followed by LPS challenge measured after 5 hrs by immunohistochemical analysis; assay type: functional, organism-based
# Mus musculus [22] = assay: Antiinflammatory activity in ip dosed C57BL/6 mouse assessed as reduction of LPS-induced IL-17 level in serum pretreated for 48 hrs followed by LPS challenge measured after 5 hrs by ELISA relative to LPS-treated control; assay type: functional, organism-based
# Mus musculus [23] = assay: In vivo activation of Nrf2 in LPS-stimulated C57BL/6 mouse lung at 10 to 80 mg/kg/day, ip pretreated for 48 hrs followed by LPS challenge measured after 5 hrs by DAPI staining-based laser scanning confocal microscopic analysis; assay type: functional, organism-based
# [24] = Permeability of the compound at pH 7.4 by PAMPA; assay type: physicochemical; conditions: read-out: permeability
# HCT-116 = assay: Cytotoxicity against human HCT116 cells assessed as reduction of cell proliferation at 80 uM after 24 hrs by MTT assay; assay type: cell-based; conditions: hct-116, 24 h
# [25] = target: T1, Nuclear factor erythroid 2-related factor 2 (Homo sapiens); assay: Induction of Nrf2 phosphorylation at S40 in cytoplasm of human HCT116 cells at 20 uM after 4 hrs by Western blot analysis; assay type: cell-based; conditions: HCT-116
# [26] = target: T1, Nuclear factor erythroid 2-related factor 2 (Homo sapiens); assay: Activation of Nrf2 in human HCT116 cells assessed as upregulation of NQO1 gene expression measured at 4 hrs by qRT-PCR analysis; assay type: cell-based; conditions: HCT-116
# [27] = target: T1, Nuclear factor erythroid 2-related factor 2 (Homo sapiens); assay: Activation of Nrf2 in human HCT116 cells assessed as upregulation of HO-1 expression after 8 hrs by Western blot analysis; assay type: cell-based; conditions: HCT-116
# [28] = target: T1, Nuclear factor erythroid 2-related factor 2 (Homo sapiens); assay: Activation of Nrf2 in human HCT116 cells assessed as upregulation of NQO1 expression after 8 hrs by Western blot analysis; assay type: cell-based; conditions: HCT-116
# [29] = target: T1, Nuclear factor erythroid 2-related factor 2 (Homo sapiens); assay: Induction of Nrf2 translocation from cytoplasm to nucleus in human HCT116 cells at 20 uM after 4 hrs by Western blot analysis; assay type: cell-based; conditions: HCT-116
# [30] = target: T1, Nuclear factor erythroid 2-related factor 2 (Homo sapiens); assay: Activation of Nrf2 in human HCT116 cells measured at 4 hrs by qRT-PCR analysis; assay type: cell-based; conditions: HCT-116
compound,measurement,setting,value
Fc1ccc(-c2nc(-c3ccc4nc[nH]c4c3)no2)cc1,Activity,[1],Dose-dependent effect
same,Activity,[2],Active
same,Activity,Mus musculus [3],Dose-dependent effect
same,Activity,Mus musculus [4],Active
same,Activity,[5],Dose-dependent effect
same,Activity,[6],Active
same,Activity,Mus musculus [7],Dose-dependent effect
same,Activity,[8],Dose-dependent effect
same,Activity,[9],Active
same,Activity,[10],Active
same,Activity,[11],Active
same,Activity,Mus musculus [12],Dose-dependent effect
same,Activity,[13],Active
same,Activity,[14],Dose-dependent effect
same,solubility,[15],66.9 µM
same,pKa,[16],3.57
same,logD,[17],3.37
same,Activity,Mus musculus [18],Dose-dependent effect
same,Activity,Mus musculus [19],Dose-dependent effect
same,Activity,Mus musculus [20],Non-toxic
same,inhibition,Mus musculus [21],Dose-dependent effect
same,Activity,Mus musculus [22],Dose-dependent effect
same,Activity,Mus musculus [23],Active
same,Papp,[24],19.6 ×10⁻⁶ cm/s
same,Activity,HCT-116,Non-toxic
same,Activity,[25],Active
same,Activity,[26],Dose-dependent effect
same,Activity,[27],Dose-dependent effect
same,Activity,[28],Dose-dependent effect
same,Activity,[29],Active
same,Activity,[30],Dose-dependent effect

# Source: ChEMBL document CHEMBL3585308, “Discovery and Modification of in Vivo Active Nrf2 Activators with 1,2,4-Oxadiazole Core: Hits Identification and Structure-Activity Relationship Study” (J Med Chem, 2015)
